Data: paper PMC10691210 (Proceedings of the National Academy of Sciences of the …, 2023)

System: whole plants
Assay: Herbicidal activity on whole plants
Assay type: in vivo

Q: Which herbicidal effectiveness does the source give for Cc1nc2c(F)c(F)ccc2cc1Oc1cccc(F)c1C(C)(C)O [ipflufenoquin] here?
A: Its herbicidal effectiveness is “ineffective”.
